# Measured values: patent US10865196B2, “Compounds for treatment of cancer” (University of Tennessee Research Foundation, priority 2008, dated 2020)
# Read-outs that look alike come from different tables or passages of the source.
# Legend:
# PC-3 [1] = assay: SRB antiproliferation assay, PC-3 prostate cancer; conditions: human, PC-3 cells, 96 h
# [2] = pharmacokinetic study in beagle dogs; conditions: dog, PO 5 mg/kg vs IV 2 mg/kg
# DU 145 = assay: SRB antiproliferation assay, DU 145 prostate cancer; conditions: read-out: Cytotoxicity IC50 mean ± SD, Du-145; 96 h treatment, N = 3
# [3] = tested on: colchicine-binding site on tubulin; assay: competitive mass binding assay, colchicine-tubulin binding; conditions: tubulin 1 mg/mL
# PC-3 [4] = assay: apoptosis, cytoplasmic DNA-histone complexes, PC-3; assay type: cell-based, human; conditions: 0.8 to 600 nmol/L, 24 h
# [5] = pharmacokinetic study in Sprague-Dawley rats; conditions: rat
# PC3 = assay: cell growth inhibition SRB, PC3 (vascular study); assay type: cell-based; conditions: Homo sapiens, PC-3, N = 3, Table 14
# From the text: (§1) Cell growth inhibition studies. […] Cells were stained with sulphorhodamine B (SRB) solution.
# PC-3/TxR tumors = conditions: for Tumor size End: mouse, in vivo, po
# PC-3/TxR = assay: apoptosis, cytoplasmic DNA-histone complexes, PC-3/TxR; assay type: cell-based, human; conditions: 0.8 to 600 nmol/L, 24 h
# HUVEC = assay: endothelial cell growth inhibition SRB, HUVEC; assay type: cell-based, human; conditions: Homo sapiens, HUVEC; SRB, N = 3, growth factor-supplemented endothelial cells
# [6] = tested on: prostate cancer cells (LNCaP, PC-3, DU-145, PPC-1); assay: SRB assay, prostate cancer cells; assay type: cell-based, human; conditions: Homo sapiens, range over prostate cancer cell lines; read-out: IC50 values against prostate cancer cells
# Porcine brain tubulin = target: T1, Porcine brain tubulin (Sus scrofa, UniProt P02550+P02554); assay type: biochemical; conditions: 5 μM, at 15 min
# T1 construct: […]; purchased Cytoskeleton, Denver, Colo; host or cells: porcine brain
# [7] = pharmacokinetic study in ICR mice; conditions: mouse, PO 20 mg/kg vs IV 10 mg/kg
# LNCaP = assay: SRB antiproliferation assay, LNCaP prostate cancer; conditions: read-out: Cytotoxicity IC50 mean ± SD, LNCaP; 96 h treatment, N = 3
# PPC-1 = assay: SRB antiproliferation assay, PPC-1 prostate cancer; conditions: read-out: Cytotoxicity IC50 mean ± SD, PPC-1; 96 h treatment, N = 3
# [8] = tested on: confluent HUVEC monolayers; assay: endothelial monolayer permeability assay; assay type: cell-based, human; conditions: leakage of FITC-dextran (MW 40,000) after 1, 2 and 4 h
# From the text: Endothelial monolayer permeability assay.
# T47D = assay: cell growth inhibition SRB, T47D; assay type: cell-based; conditions: Homo sapiens, N = 3, Table 14
# From the text: as §1
# CaCO-2 = assay: permeability, CaCO-2 assay; conditions: mean of duplicate studies
smiles,measurement,setting,value
"COc1cc(C(=O)c2csc(Nc3ccc4[nH]ccc4c3)n2)cc(OC)c1OC [compound 55, (2-(1H-indol-5-ylamino)thiazol-4-yl)(3,4,5-trimethoxyphenyl)methanone]",IC50,PC-3 [1],0.0165 ± 0.0015 µM
same,F,[2],36%
same,IC50,DU 145,0.038 ± 0.0006 µM
same,competition with colchicine for tubulin binding,[3],competed effectively with colchicine for tubulin binding
same,induction of cell apoptosis in PC-3,PC-3 [4],equally potent
same,AUC,[5]; IV 5 mg/kg,509 ± 73 µg·min/mL
same,Vss,[5]; IV 5 mg/kg,1.0 ± 0.1 L/kg
same,AUC,[5]; PO 10 mg/kg,246 ± 163 µg·min/mL
same,F,[5]; PO 10 mg/kg vs IV 5 mg/kg,24%
same,IC50,PC3,0.0233 µM
same,Body weight End,"PC-3/TxR tumors; PC-3/TxR xenograft, PO 10 mpk b.i.d × 5/w, day 26, start 29 ± 2",26 ± 3 g
same,TGI,"PC-3/TxR tumors; PC-3/TxR xenograft, PO 30 mpk b.i.d × 5/w, day 26, 30 mg/kg",> 100%
same,Body weight End,"PC-3/TxR tumors; PC-3/TxR xenograft, PO 30 mpk b.i.d × 5/w, day 26, start 29 ± 3",30 ± 2 g
same,Tumor size End,PC-3/TxR tumors; 10 mg/kg,1152 ± 433 mm^3
same,Tumor size End,PC-3/TxR tumors; 30 mg/kg,101 ± 19 mm^3
same,induction of cell apoptosis in PC-3/TxR,PC-3/TxR,equally potent
same,IC50,HUVEC,0.0097 µM
same,IC50,[6],0.0075 to 0.0241 µM
same,inhibition of tubulin polymerization,Porcine brain tubulin,40%
same,F,[7],34%
same,IC50,LNCaP,0.027 ± 0.0006 µM
same,IC50,PPC-1,0.036 ± 0.0004 µM
same,permeability of endothelial cell monolayer,[8],increased permeability
same,IC50,T47D,0.0374 µM
same,Permeability Papp(A→B) in CaCO-2 assay,CaCO-2,99 10^−6 cm/s
